Experiments:
[1] = target: T1, Citron kinase (Homo sapiens (Human), UniProt O14578); assay: Radiometric citron kinase assay (Eurofins Cat #16-040KP); type: biochemical; conditions: mean of at least two independent assays; read-out: Radiometric CitK IC50
Method in brief: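 Radiometric KinaseProfiler format: test compound incubated with kinase, substrate, cofactors and radiolabelled ATP; unreacted ATP washed away and radiolabelled phosphate incorporated into substrate measured. IC50 derived from inhibition of phosphorylation. Values are means of at least two independent assays.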

[2] = target: T1, Citron kinase; assay: TR-FRET citron kinase assay (Eurofins Cat #2628); type: biochemical; conditions: mean of at least two independent assays; read-out: TR-FRET CitK IC50
Source text: Compounds were screened for biochemical kinase activity (Eurofins Discovery, France) using one of two assays. […] All values in Table 1 are the mean of at least two independent assays.

[3] = target: AKT-1 (Homo sapiens (Human), UniProt P31749); assay: KinaseProfiler radiometric assay (14-276KP); type: biochemical; conditions: mean of at least two independent experiments
Source text: (§1) In another aspect, disclosed is a method of inhibiting citron kinase in a sample, comprising contacting the sample with a compound described herein (e.g., a compound of formula (I) or a pharmaceutically acceptable salt thereof), or a pharmaceutical composition described herein (e.g., a pharmaceutical composition comprising a compound of formula (I) or a pharmaceutically acceptable salt thereof), in an amount effective to inhibit citron kinase. In some embodiments, the step of contacting the sample with the compound comprises administering the compound to a subject (e.g., a subject) suffering from cancer. Methods of determining kinase inhibition are well known in the art. For example, kinase activity of an enzyme and the inhibitory capacity of a test compound can be determined by measuring enzyme specific phosphorylation of a substrate. Commercial assays and kits can be employed. For example, kinase inhibition can be determined using a radiometric binding assay, such as using KinaseProfiler™ technology (Eurofins Discovery). This assay method directly detects product formation without the use of modified substrates or coupling enzymes. Test compounds are incubated with kinase, substrate, required cofactors and radioisotope labeled ATP. Following incubation, unreacted radioactive ATP is removed by washing and incorporation of the radiolabeled phosphate into the kinase substrate is assayed to detect phosphoryltransferase activity, which is directly proportional to the amount of phosphorylated substrate. Inhibition of the kinase by a kinase inhibitor prevents phosphorylation of the substrate and thereby limits the incorporation of radiolabeled phosphate. Such an assay is compatible with a microwell assay format, allowing simultaneous determination of IC50 of multiple compounds.
(§2) The effect of various compounds on the inhibition of other kinases has also been determined. Table 2 reports measured IC50 values; value units are nanomolar inhibition.

[4] = target: AUR-B (Homo sapiens (Human), UniProt Q96GD4); assay: KinaseProfiler radiometric assay (14-835KP); type: biochemical; conditions: mean of at least two independent experiments
Source text: as §1, §2

[5] = target: IKKβ (Homo sapiens (Human), UniProt O14920); assay: KinaseProfiler radiometric assay (14-485KP); type: biochemical; conditions: mean of at least two independent experiments
Source text: as §1, §2

[6] = target: PKAα (Homo sapiens (Human), UniProt P17612); assay: KinaseProfiler radiometric assay (14-440KP); type: biochemical; conditions: mean of at least two independent experiments
Source text: as §1, §2

[7] = target: ROCK-1 (Homo sapiens (Human), UniProt Q13464); assay: KinaseProfiler radiometric assay (14-601KP); type: biochemical; conditions: mean of at least two independent experiments
Source text: as §1, §2

[8] = target: ROCK-2 (Homo sapiens (Human), UniProt O75116); assay: KinaseProfiler radiometric assay (14-451KP); type: biochemical; conditions: mean of at least two independent experiments
Source text: as §1, §2

[9] = target: TRK-B (Homo sapiens (Human), UniProt Q16620); assay: KinaseProfiler radiometric assay (14-507KP); type: biochemical; conditions: mean of at least two independent experiments
Source text: as §1, §2

[10] = target: NanoLuc-CITK (full-length human CITK) (Homo sapiens (Human), UniProt O14578); assay: NanoBRET intracellular target engagement assay; type: cell-based; conditions: for IC50: HEK293T cells transfected with NanoLuc-CITK, Tracer K10 1 μM, 2 hours
Procedure: In-cell Kd values were evaluated with a NanoBRET Target Engagement Assay essentially as recommended by the manufacturer (Promega Corporation—for details see https://www.promega.com/resources/technologies/nanoluc-luciferase-enzyme/cellular-target-engagement/).
HEK293T cells were transfected with 5.0 μg/mL sterile NanoLuc-CITK DNA, 5.0 μg/mL Transfection Carrier DNA, and 30 μL/mL FugeneHD® (Promega) in Opti-Mem™ (Thermo) media at a cell density of 250,000 cells/mL. […] 5 μL of the 25× Tracer K10 solution was added to each well. Next, designated inhibitors were prepared from powder as 10 mM DMSO stocks and then further diluted to 10× the final assay concentration in Opti-Mem™. 12-pt dose-response curves were prepared by 3×-serial dilution. […] A 3× Complete Substrate+Inhibitor solution, containing 6 mL of Opti-Mem™, 36 μL of NanoBRET Nano-Glo Substrate, and 12 μL Extracellular NanoLuc Inhibitor was freshly prepared for each plate. 50 μL of the 3× Complete Substrate+Inhibitor solution was added to all wells and the plate was incubated for 2 min with 500 RPM shaking. The bottom of the plates were covered with black plate seals and then measured on a Cytation 5 plate reader (Biotek) with a NanoBRET Filter Cube (Biotek; 450/50 emission & 610LP emission). Background corrected BRET ratios (in mBU) were calculated in Excel and IC50's were subsequently extracted using four-parameter non-linear regression in GraphPad Prism 8.

[11] = target: AAK1 (Homo sapiens (Human), UniProt Q2M2I8); assay: KinaseProfiler radiometric assay (16-043KP); type: biochemical; conditions: mean of at least two independent experiments
Source text: as §1, with “Test compounds are incubated with kinase, substrate, required cofactors and radioisotope labeled ATP. Following incubation, unreacted radioactive ATP is removed by washing and incorporation of the radiolabeled phosphate into the kinase substrate is assayed to detect phosphoryltransferase activity, which is directly proportional to the amount of phosphorylated substrate. Inhibition of the kinase by a kinase inhibitor prevents phosphorylation of the substrate and thereby limits the incorporation of radiolabeled phosphate. Such an assay is compatible with a microwell assay format, allowing simultaneous determination of IC50 of multiple compounds.” left out
as §2

[12] = target: ACK1 (Homo sapiens (Human), UniProt Q07912); assay: KinaseProfiler radiometric assay (14-756KP); type: biochemical; conditions: mean of at least two independent experiments
Source text: as §1, with “In” for “In another aspect, disclosed is a method of inhibiting citron kinase in a sample, comprising contacting the sample with a compound described herein (e.g., a compound of formula (I) or a pharmaceutically acceptable salt thereof), or a pharmaceutical composition described herein (e.g., a pharmaceutical composition comprising a compound of formula (I) or a pharmaceutically acceptable salt thereof), in an amount effective to inhibit citron kinase. In”

[13] = target: BIKE (Homo sapiens (Human), UniProt Q9NSY1); assay: KinaseProfiler radiometric assay (16-044KP); type: biochemical; conditions: mean of at least two independent experiments
Source text: as §1, with “Test compounds are incubated with kinase, substrate, required cofactors and radioisotope labeled ATP. Following incubation, unreacted radioactive ATP is removed by washing and incorporation of the radiolabeled phosphate into the kinase substrate is assayed to detect phosphoryltransferase activity, which is directly proportional to the amount of phosphorylated substrate. Inhibition of the kinase by a kinase inhibitor prevents phosphorylation of the substrate and thereby limits the incorporation of radiolabeled phosphate. Such an assay is compatible with a microwell assay format, allowing simultaneous determination of IC50 of multiple compounds.” left out
as §2

[14] = target: DRAK2 (Homo sapiens (Human), UniProt O94768); assay: KinaseProfiler radiometric assay (16-003KP); type: biochemical; conditions: mean of at least two independent experiments
Source text: as §1, with “In” for “In another aspect, disclosed is a method of inhibiting citron kinase in a sample, comprising contacting the sample with a compound described herein (e.g., a compound of formula (I) or a pharmaceutically acceptable salt thereof), or a pharmaceutical composition described herein (e.g., a pharmaceutical composition comprising a compound of formula (I) or a pharmaceutically acceptable salt thereof), in an amount effective to inhibit citron kinase. In”

[15] = target: HIPK4 (Homo sapiens (Human), UniProt Q8NE63); assay: KinaseProfiler radiometric assay (15-003KP); type: biochemical; conditions: mean of at least two independent experiments
Source text: as §1, with “Test compounds are incubated with kinase, substrate, required cofactors and radioisotope labeled ATP. Following incubation, unreacted radioactive ATP is removed by washing and incorporation of the radiolabeled phosphate into the kinase substrate is assayed to detect phosphoryltransferase activity, which is directly proportional to the amount of phosphorylated substrate. Inhibition of the kinase by a kinase inhibitor prevents phosphorylation of the substrate and thereby limits the incorporation of radiolabeled phosphate. Such an assay is compatible with a microwell assay format, allowing simultaneous determination of IC50 of multiple compounds.” left out
as §2

[16] = target: Mnk2 (Homo sapiens (Human), UniProt Q9HBH9); assay: KinaseProfiler radiometric assay (14-664KP); type: biochemical; conditions: mean of at least two independent experiments
Source text: as §1, with “Test compounds are incubated with kinase, substrate, required cofactors and radioisotope labeled ATP. Following incubation, unreacted radioactive ATP is removed by washing and incorporation of the radiolabeled phosphate into the kinase substrate is assayed to detect phosphoryltransferase activity, which is directly proportional to the amount of phosphorylated substrate. Inhibition of the kinase by a kinase inhibitor prevents phosphorylation of the substrate and thereby limits the incorporation of radiolabeled phosphate. Such an assay is compatible with a microwell assay format, allowing simultaneous determination of IC50 of multiple compounds.” left out
as §2

[17] = test system: LNCaP cells; assay: Androgen-induced citron kinase expression, western blotting; type: cell-based; conditions: low doses of androgen, 48 hours
Procedure: (§3) FIG. 1A: LNCaP (top panel) and VCaP cells (bottom panel) were treated with increasing doses of the synthetic androgen R1881 for 48 hours. CIT and j-actin expression were analyzed by western blotting. FIG. 1B: LNCaP (left panel) and VCaP cells (right panel) were treated with increasing doses of the natural androgen dihydrotestosterone (DHT) and analyzed as for FIG. 1A.

[18] = test system: VCaP cells; assay: as above; type: cell-based; conditions: low doses of androgen, 48 hours
Procedure: as §3

AUR-B, sequence (Q96GD4 whole entry): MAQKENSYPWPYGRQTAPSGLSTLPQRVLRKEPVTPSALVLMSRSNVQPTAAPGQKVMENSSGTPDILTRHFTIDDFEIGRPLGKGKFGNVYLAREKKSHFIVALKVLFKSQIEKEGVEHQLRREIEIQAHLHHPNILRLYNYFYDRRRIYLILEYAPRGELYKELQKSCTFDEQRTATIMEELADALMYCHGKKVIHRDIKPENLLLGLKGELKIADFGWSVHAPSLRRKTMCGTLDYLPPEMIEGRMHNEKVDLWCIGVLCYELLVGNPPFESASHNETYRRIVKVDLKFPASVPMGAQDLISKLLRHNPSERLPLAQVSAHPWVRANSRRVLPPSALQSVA
NanoLuc-CITK (full-length human CITK), sequence (O14578 other isoform, or with tags, fused parts or gaps): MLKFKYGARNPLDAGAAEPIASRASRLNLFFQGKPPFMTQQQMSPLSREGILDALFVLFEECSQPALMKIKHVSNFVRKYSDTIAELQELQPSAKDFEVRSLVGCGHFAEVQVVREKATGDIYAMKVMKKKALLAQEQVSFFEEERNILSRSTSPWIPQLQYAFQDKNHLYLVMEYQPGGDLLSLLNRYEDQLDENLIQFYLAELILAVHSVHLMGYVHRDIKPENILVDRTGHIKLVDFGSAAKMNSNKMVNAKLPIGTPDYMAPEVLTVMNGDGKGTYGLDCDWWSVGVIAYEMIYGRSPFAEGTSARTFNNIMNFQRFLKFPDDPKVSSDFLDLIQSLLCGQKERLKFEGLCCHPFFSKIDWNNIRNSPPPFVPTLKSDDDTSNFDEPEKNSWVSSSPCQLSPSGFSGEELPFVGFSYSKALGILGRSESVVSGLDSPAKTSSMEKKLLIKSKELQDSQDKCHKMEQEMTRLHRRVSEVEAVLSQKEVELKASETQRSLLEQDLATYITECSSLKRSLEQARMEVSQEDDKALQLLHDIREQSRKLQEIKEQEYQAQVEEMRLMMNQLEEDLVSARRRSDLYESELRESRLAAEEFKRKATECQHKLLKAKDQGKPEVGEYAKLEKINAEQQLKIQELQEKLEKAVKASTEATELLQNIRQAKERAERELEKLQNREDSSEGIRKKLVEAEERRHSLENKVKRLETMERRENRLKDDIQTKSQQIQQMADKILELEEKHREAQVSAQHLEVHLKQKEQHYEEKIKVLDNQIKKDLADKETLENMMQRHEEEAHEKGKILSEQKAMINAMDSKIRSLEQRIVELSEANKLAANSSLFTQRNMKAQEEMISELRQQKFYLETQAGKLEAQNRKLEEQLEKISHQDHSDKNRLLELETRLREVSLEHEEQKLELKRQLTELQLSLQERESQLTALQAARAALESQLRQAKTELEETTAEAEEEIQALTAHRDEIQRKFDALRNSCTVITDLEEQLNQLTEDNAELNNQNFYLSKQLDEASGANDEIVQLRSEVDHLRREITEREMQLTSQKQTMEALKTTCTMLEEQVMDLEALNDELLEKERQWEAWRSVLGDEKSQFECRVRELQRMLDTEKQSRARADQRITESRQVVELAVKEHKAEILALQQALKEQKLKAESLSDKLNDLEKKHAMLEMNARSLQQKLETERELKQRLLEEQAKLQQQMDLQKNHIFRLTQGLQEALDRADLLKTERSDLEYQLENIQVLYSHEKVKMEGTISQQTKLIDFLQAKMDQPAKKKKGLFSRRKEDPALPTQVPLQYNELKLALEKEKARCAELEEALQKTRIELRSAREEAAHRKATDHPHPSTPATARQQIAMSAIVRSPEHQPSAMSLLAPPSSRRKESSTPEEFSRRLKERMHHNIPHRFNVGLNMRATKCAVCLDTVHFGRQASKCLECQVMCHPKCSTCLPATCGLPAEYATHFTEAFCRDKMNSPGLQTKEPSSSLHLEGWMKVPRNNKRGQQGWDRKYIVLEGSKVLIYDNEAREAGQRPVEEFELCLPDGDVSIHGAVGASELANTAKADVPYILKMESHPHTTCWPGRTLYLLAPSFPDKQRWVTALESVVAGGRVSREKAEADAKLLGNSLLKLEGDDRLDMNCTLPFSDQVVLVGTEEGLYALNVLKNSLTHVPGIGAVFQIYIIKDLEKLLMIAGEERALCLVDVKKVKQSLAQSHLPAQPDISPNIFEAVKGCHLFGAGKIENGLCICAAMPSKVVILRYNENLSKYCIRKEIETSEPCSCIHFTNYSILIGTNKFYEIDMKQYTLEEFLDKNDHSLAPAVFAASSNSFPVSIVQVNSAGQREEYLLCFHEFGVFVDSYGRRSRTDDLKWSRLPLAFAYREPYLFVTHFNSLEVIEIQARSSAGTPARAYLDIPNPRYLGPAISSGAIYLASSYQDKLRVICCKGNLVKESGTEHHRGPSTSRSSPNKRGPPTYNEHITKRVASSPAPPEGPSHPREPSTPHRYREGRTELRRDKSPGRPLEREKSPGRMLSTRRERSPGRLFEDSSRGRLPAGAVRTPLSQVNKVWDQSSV
AKT-1, sequence (P31749 whole entry): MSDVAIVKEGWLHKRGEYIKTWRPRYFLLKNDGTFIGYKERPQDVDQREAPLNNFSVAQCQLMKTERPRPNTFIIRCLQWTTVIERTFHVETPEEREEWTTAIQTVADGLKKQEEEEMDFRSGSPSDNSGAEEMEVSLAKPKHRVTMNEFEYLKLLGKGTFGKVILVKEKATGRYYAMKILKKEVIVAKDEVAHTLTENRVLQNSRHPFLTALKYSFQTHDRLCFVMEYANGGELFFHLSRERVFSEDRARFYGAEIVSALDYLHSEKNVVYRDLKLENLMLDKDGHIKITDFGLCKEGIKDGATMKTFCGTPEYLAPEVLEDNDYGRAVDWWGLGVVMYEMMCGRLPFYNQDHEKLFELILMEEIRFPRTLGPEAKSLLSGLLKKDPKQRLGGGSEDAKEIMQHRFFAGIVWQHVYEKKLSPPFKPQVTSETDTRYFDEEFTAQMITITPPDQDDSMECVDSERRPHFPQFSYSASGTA
ROCK-1, sequence (Q13464 whole entry): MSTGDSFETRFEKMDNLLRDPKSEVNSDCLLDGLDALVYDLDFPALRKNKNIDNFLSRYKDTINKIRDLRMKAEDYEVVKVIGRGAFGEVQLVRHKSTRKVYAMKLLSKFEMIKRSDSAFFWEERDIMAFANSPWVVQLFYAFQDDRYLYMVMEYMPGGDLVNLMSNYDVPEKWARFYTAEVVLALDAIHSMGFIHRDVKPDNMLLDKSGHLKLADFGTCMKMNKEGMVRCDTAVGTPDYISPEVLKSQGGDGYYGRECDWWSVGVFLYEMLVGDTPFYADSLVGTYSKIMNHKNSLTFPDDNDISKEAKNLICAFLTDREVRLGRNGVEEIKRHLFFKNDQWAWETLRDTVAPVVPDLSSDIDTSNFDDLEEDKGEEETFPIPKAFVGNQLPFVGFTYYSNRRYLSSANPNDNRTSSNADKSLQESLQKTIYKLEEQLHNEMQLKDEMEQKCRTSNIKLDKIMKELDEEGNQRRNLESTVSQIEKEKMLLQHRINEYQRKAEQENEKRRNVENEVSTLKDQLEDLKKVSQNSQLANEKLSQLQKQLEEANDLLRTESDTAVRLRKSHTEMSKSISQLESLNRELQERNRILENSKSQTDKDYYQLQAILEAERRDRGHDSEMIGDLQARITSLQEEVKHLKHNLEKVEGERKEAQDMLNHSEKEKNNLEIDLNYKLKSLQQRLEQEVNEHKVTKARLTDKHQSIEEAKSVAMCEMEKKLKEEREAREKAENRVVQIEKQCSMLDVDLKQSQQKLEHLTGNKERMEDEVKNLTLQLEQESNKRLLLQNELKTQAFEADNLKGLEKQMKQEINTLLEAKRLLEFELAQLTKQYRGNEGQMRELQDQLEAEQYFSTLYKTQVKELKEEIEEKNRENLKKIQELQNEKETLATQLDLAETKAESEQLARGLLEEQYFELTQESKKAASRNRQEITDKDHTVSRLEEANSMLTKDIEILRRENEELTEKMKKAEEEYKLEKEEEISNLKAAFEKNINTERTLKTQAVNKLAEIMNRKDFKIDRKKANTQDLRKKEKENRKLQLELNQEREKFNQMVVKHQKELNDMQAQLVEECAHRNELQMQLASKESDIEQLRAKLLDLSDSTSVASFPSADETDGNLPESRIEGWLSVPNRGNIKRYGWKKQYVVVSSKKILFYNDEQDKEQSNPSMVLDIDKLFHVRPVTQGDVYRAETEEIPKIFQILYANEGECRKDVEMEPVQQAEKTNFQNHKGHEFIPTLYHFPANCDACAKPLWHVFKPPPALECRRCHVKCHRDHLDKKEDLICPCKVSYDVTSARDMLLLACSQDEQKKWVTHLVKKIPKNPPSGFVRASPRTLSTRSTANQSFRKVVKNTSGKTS
TRK-B, sequence (Q16620 32-822): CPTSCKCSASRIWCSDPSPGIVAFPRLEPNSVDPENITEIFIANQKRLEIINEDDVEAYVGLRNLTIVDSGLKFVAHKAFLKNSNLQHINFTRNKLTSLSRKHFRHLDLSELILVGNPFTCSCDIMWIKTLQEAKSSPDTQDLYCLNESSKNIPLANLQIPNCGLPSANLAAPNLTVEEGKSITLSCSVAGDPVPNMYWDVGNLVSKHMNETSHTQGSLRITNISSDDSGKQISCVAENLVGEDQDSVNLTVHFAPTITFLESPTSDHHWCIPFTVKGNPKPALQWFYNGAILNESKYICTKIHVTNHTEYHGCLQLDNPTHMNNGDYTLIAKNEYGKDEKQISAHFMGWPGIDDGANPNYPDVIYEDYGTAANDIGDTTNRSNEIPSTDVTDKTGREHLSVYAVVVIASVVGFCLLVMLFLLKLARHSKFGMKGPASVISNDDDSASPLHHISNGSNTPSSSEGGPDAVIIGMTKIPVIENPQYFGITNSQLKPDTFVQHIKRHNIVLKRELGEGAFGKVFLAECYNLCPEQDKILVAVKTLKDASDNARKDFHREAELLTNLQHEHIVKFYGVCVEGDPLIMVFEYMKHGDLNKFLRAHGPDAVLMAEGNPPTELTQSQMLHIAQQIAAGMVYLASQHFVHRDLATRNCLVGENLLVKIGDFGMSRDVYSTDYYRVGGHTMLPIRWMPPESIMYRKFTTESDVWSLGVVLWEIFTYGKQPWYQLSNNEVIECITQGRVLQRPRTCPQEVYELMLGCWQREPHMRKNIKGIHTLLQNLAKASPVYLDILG

Row | SMILES | IC50 [1] [nM] | IC50 [2] [nM] | IC50 [3] [nM] | IC50 [4] [nM] | IC50 [6] [nM] | IC50 [7] [nM] | IC50 [9] [nM] | other results
1 | CC(C)C[C@H](N)C(=O)Nc1ccc(-c2ccnc3[nH]ccc23)cc1 [Compound F-8, (2S)-2-Amino-4-methyl-N-[4-(1H-pyrrolo[2,3-b]pyridin-4-yl)phenyl]pentanamide] | 54.1 | 29.9 | – | – | – | – | – | –
2 | CC(C)C[C@@H](N)C(=O)Nc1ccc(-c2ccnc3[nH]ccc23)cc1 [Compound F-9, (2R)-2-Amino-4-methyl-N-[4-(1H-pyrrolo[2,3-b]pyridin-4-yl)phenyl]pentanamide] | 12.5 | 4.9 | 761 | 230 | 7 | 230 | > 3000 | IC50 [5]: 111 nM; IC50 [8]: 18 nM; Kd [10]: 13 nM; IC50 [10]: 67 nM
3 | NC(C(=O)Nc1ccc(-c2ccnc3[nH]ccc23)cc1)C1CC1 (stereo not drawn) [Compound F-18, 2-Amino-2-cyclopropyl-N-[4-(1H-pyrrolo[2,3-b]pyridine-4-yl)phenyl]acetamide] | – | 120 | – | – | – | – | – | –
4 | N[C@@H](Cc1ccccc1)C(=O)Nc1ccc(-c2ccnc3[nH]ccc23)cc1 [Compound F-32, (S)-N-(4-(1H-pyrrolo[2,3-b]pyridin-4-yl)phenyl)-2-amino-3-phenylpropanamide] | – | – | 1100 | 156 | 7 | 119 | 469 | –
5 | N[C@H](Cc1ccccc1)C(=O)Nc1ccc(-c2ccnc3[nH]ccc23)cc1 [Compound F-33, (R)-N-(4-(1H-pyrrolo[2,3-b]pyridin-4-yl)phenyl)-2-amino-3-phenylpropanamide] | – | – | 436 | 104 | 3 | 107 | 332 | –
6 | Cc1c[nH]c2nccc(-c3ccc(NC(=O)C(N)Cc4ccccc4)cc3)c12 (stereo not drawn) [Compound F-135, 2-Amino-N-[4-(3-methyl-1H-pyrrolo[2,3-b]pyridin-4-yl)phenyl]-3-phenyl-propanamide] | – | 392 | – | – | – | – | – | –
7 | Cc1cc2c(-c3ccc(NC(=O)[C@H](N)C(C)(C)O)cc3C)ccnc2[nH]1 [Compound F-140, (2R)-2-Amino-3-hydroxy-3-methyl-N-[3-methyl-4-(2-methyl-1H-pyrrolo[2,3-b]pyridin-4-yl)phenyl]butanamide] | 40 | – | – | – | > 3000 | – | – | IC50 [11]: 1910 nM; IC50 [12]: > 3000 nM; IC50 [13]: > 3000 nM; IC50 [14]: > 3000 nM; IC50 [15]: > 3000 nM; IC50 [5]: > 3000 nM; IC50 [16]: 1990 nM; IC50 [8]: > 3000 nM; Kd [10]: 108 nM; IC50 [10]: 580 nM
8 | C[C@]1(O)CC[C@H]2[C@@H]3CCC4=CC(=O)CCC4=C3C=C[C@@]21C [Compound R1881] | – | – | – | – | – | – | – | citron kinase expression [17]: significant increase; citron kinase expression [18]: significant increase

— patent US20250243196A1, “CITRON KINASE INHIBITORS” (The Cleveland Clinic Foundation, priority 2021, published 2025)
